Laboratory results from the supplement of paper PMC6723410.

The compounds below were run on GUMC-403 (assay: viability at highest tested concentration (max response) relative to DMSO (% of DMSO control); higher = less cytotoxic). Conditions: library / dose series: MIPE library, 11-point 1:3 dilution; top concentration 23 µM; 48 h.
Method in brief: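 Viability at the highest tested concentration is given relative to vehicle control. For this, conditionally reprogrammed patient-derived GUMC-403 papilloma cells at 700/well in 1536-well plates were exposed to 23 nL of pinned compound for 48 h. Luminescence from CellTiter-Glo was read on a ViewLux and scaled between empty wells (0%) and vehicle wells (100%).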

Row | SMILES | viability
1 | NC/1=N/C(=O)N(C[C@@H](CO)OC[P](O)(O)=O)/C=C1 | 104
2 | CN1CCCN(CC1)C2=CC=C3C(=O)\C(=C/4SC5=C(C=CC=C5)N4C3=N2)C(=O)NCC6=CN=C(C)C=N6 | 101

Same assay, conditions: library / dose series: MIPE library, 11-point 1:3 dilution; top concentration 34.6 µM; 48 h

Row | SMILES | viability
3 | Nc1ncnc2c1ncn2[C@@H]1O[C@@H](CO)[C@H](O)[C@@H]1O | 118

Same assay, conditions: library / dose series: MIPE library, 11-point 1:3 dilution; top concentration 46.1 µM; 48 h

Row | SMILES | viability
4 | Cc1c[nH]c(-c2cnc(NCCNc3ccc(C#N)cn3)nc2-c2ccc(Cl)cc2Cl)n1 | 77.1
5 | CCC1(C)CC(=O)NC1=O (stereo not drawn) | 94.5
6 | CCN(CC)CCOc1ccc(Cc2ccccc2)cc1 | 101
7 | O=c1[nH]c2ccccc2n1C1CCN(Cc2ccc(-c3nc4cc5nc[nH]c5cc4nc3-c3ccccc3)cc2)CC1 | 103
8 | COc1cc2ncn(-c3cc(OCc4ccccc4[S+](C)(=O)[O-])c(C#N)s3)c2cc1OC | 81.5
9 | CO/N=C(/C(=O)N[C@@H]1C(=O)N2C(C(=O)O)=C(CSC(=O)c3ccco3)CS[C@H]12)c1csc(N)n1 | 172
10 | O=[S+]([O-])(F)Cc1ccccc1 | 84.1
11 | COc1cc(C(=O)NC2CCN(C)CC2)ccc1Nc1ncc2c(n1)N(C1CCCC1)CCC(=O)N2C(C)C | 93.5
12 | N=C(N)Nc1ccc(C(=O)Oc2ccc3cc(C(=N)N)ccc3c2)cc1 | 86.1
13 | O=C(Oc1ccc([N+](=O)[O-])cc1)N1CCN(Cc2cccc(Oc3ccccc3)c2)CC1 | 63.7
14 | Cc1ccc(/C=N/NC(=O)c2ccccc2Oc2ccccc2)o1 | 92
15 | COc1ccc(Nc2nccc(NCCO)n2)cc1 | 99.9
16 | CC1COC2=C3N1\C=C(C(O)=O)/C(=O)C3=CC(=C2N4CCN(C)CC4)F (stereo not drawn) | 105
17 | C[C@@]12C[C@@]3(O)O[C@@H](O1)[C@]1(COC(=O)c4ccccc4)[C@H]3C[C@@]12O[C@@H]1O[C@H](CO)[C@@H](O)[C@H](O)[C@H]1O | 115
18 | Cc1nnc(N[S+](=O)([O-])c2ccc(N)cc2)s1 | 113
19 | N#Cc1ccc(NC(=O)Nc2ccccc2Br)c2nn[nH]c12 | 129
20 | Cc1cccc(N(C)C(=S)Oc2ccc3ccccc3c2)c1 | 139
21 | NC(=O)N1CCC(CC(=O)N2CCC([C@H]3c4ncc(Br)cc4CCc4cc(Cl)cc(Br)c43)CC2)CC1 | 101
22 | CC(C)c1cc(C(C)C)c(CC(=O)N[S+](=O)([O-])Oc2c(C(C)C)cccc2C(C)C)c(C(C)C)c1 | 99.7
23 | c1ccc2c(CN3CCNCC3)cccc2c1 | 122
24 | Cc1cnc(Nc2ccc(OCCN3CCCC3)cc2)nc1Nc1cccc([S+](=O)([O-])NC(C)(C)C)c1 | 141
25 | CCCCCCCCCCCC(CC1OC(=O)C1CCCCCC)OC(=O)C(CC(C)C)NC=O (stereo not drawn) | 101
26 | CN1C(=O)C(=C/2N(C(=O)N(C3CC3)C(=O)C2=C1/NC4=CC=C(I)C=C4F)C5=CC=CC(=C5)NC(C)=O)\C | 87.7
27 | O=C(CCc1ccc(O)cc1)c1c(O)cc(O)cc1O[C@@H]1O[C@H](CO)[C@@H](O)[C@H](O)[C@H]1O | 98.5
28 | COc1ccc(C(=O)CC(=O)c2ccc(C(C)(C)C)cc2)cc1 | 126
29 | C#Cc1cccc(Nc2ncnc3cc(OCCOC)c(OCCOC)cc23)c1 | 47.6
30 | C[C@]12COC(=O)C[C@@H]1CC[C@@H]1[C@@H]2CC[C@@]2(C)[C@H]1CC[C@]2(C)O | 108

Row | SMILES | viability
31 | CNCc1ccc(-c2[nH]c3cc(F)cc4c3c2CCNC4=O)cc1 | 93.2
32 | CCCC(CCC)C(=O)[O-] | 88.8
33 | Nc1ccccc1NC(=O)c1ccc(CNc2nccc(-c3cccnc3)n2)cc1 | 85.9
34 | O=C(O)CCCCCC(=O)NN=C1CCCC1 | 108
35 | CC(C)[C@@H](N(CCCN)C(=O)C1=CC=C(C)C=C1)C/2=C(\CC3=CC=CC=C3)C(=O)C4=C(O2)C=C(Cl)C=C4 | 119
36 | CC(Oc1ccc(O)cc1)(P(=O)(O)O)P(=O)(O)O | 112
37 | COc1cc2nccc(Oc3ccc(NC(=O)C4(C(=O)Nc5ccc(F)cc5)CC4)cc3)c2cc1OC | 63.3
38 | NC(=O)NO | 51.9
39 | COc1ccccc1OCC(O)CN1CCN(CC(=O)Nc2c(C)cccc2C)CC1 (stereo not drawn) | 130
40 | COc1cc2nc(-c3cc(F)ccc3O)nc(N[C@@H]3CNC[C@H]3C(C)(C)O)c2cc1OC | 59.9
41 | CCCC1=NC(=C2[N]1NC(=N\C2=O)/C3=CC(=CC=C3OCC)[S+]([O-])(=O)N4CCN(CC)CC4)C | 102
42 | O=C1NC(O)CCN1[C@@H]1O[C@H](CO)[C@@H](O)[C@H]1O (stereo partly drawn) | 124
43 | COc1cc(OC)c(C(=O)CCCN2CCCC2)c(OC)c1 | 112
44 | Fc1ccc(Cl)cc1-c1nc(Nc2ccncc2)c2nccnc2n1 | 128
45 | C[C@]12CC[C@H]3[C@@H](C\C=C/4C[C@@H](O)CC[C@]34C)[C@@H]1CCC2=O | 101
46 | CC(C)(C)NC(=O)Nc1cccc(Nc2ncc(F)c(NC(C)(C)CO)n2)c1 | 121
47 | Cc1ccc([S+](=O)([O-])Nc2cc(Cl)ccc2C(=O)Nc2nc(-c3ccccc3)cs2)cc1 | 104
48 | CC(C)(C)OC(=O)CN(Cc1ccc(Cl)cc1)Cc1ccc([N+](=O)[O-])s1 | 97.7
49 | C=C(c1ccc(C(=O)O)cc1)c1cc2c(cc1C)C(C)(C)CCC2(C)C | 97.6
50 | CCN1CCCC1CNC(=O)c1cc([S+](N)(=O)[O-])ccc1OC (stereo not drawn) | 134
51 | COC(=O)[C@H](c1ccccc1Cl)N1CCc2sccc2C1 | 124
52 | COC/1=C/[C@@H]2[C@@H]3CC4=C(C(=C(OC)C=C4)O)[C@]2(CCN3C)CC1=O | 65
53 | F\C1=C\NC(=O)NC1=O | 109
54 | COc1ccc(-c2oc3cc(OC)ccc3c2C(=O)c2ccc(C#N)cc2)cc1 | 142
55 | O=C(Nc1cccc(Cl)c1)Nc1ncc(CCNc2ncnc3ccsc23)s1 | 116
56 | C[C@H]1O[C@H]([C@H](O)[C@@H]1O)N2\C=C(F)/C(=O)NC2=O | 124
57 | CC(C)c1nc(CN(C)C(=O)N[C@H](C(=O)N[C@@H](Cc2ccccc2)C[C@H](O)[C@H](Cc2ccccc2)NC(=O)OCc2cncs2)C(C)C)cs1 | 99.7

Row | SMILES | viability
58 | O=C(Nc1ncc(SCCN2CCCC2)s1)[C@]1(c2ccc([S+](=O)([O-])C3CC3)cc2)C[C@H]1C1CCCCC1 | 108
59 | CCN(CC)CCCCNc1nc2cc(Cl)c(Cl)cc2nc1-c1ccc(-c2cccs2)s1 | 92.1
60 | CCOC(=O)C/1=C(O)/C(=O)N(CC2=CC=CC=C2)C1 | 136
61 | Cc1ccccc1C(C(=O)NC1CCCC1)N(C(=O)Cn1cnc2ccccc21)c1cccc(F)c1 (stereo not drawn) | 101
62 | CCN1\C=C(C(O)=O)/C(=O)C2=C1C=C(N3CCN(C)CC3)C(=C2)F | 115
63 | NC1(c2ccc(-c3nc4ccn5c(=O)[nH]nc5c4cc3-c3ccccc3)cc2)CCC1 | 90.4
64 | COc1ccc2c(c1)[C@]13CCCCC1C(C2)N(C)CC3 (stereo partly drawn) | 102
65 | CC/1=C/N([C@@H]2C[C@@H](O)[C@H](CO)O2)C(=O)NC1=O | 117
66 | O=C(N[C@H](CO)[C@H](O)c1ccc([N+](=O)[O-])cc1)C(Cl)Cl | 130
67 | CC1=NN(c2ccc(C)c(C)c2)C(=O)/C1=N/Nc1cccc(-c2cccc(C(=O)O)c2)c1O | 101
68 | Nc1ncnc2c1ncn2[C@@H]1O[C@H](CO)C[C@H]1O | 97.3
69 | CC1(C)O[C@H]2CC(=O)OC[C@]23[C@H]2CC[C@@]4(C)[C@H](c5ccoc5)OC(=O)[C@H]5O[C@]54[C@]2(C)C(=O)C[C@@H]13 | 139
70 | COC1=CC=C2CN(C)CC[C@@]34\C=C/[C@H](O)C[C@@H]3OC1=C24 | 122
71 | COc1cc2nccc(Oc3ccc(NC(=O)Nc4cc(C)on4)c(Cl)c3)c2cc1OC | 73.5
72 | CC(C)[N+]1(C)C2CCC1CC(OC(=O)C(CO)c1ccccc1)C2.O.[Br-] (stereo not drawn) | 109
73 | CC1(C)[C@@H](O[C@H]2O[C@H](C(=O)O)[C@@H](O)[C@H](O)[C@H]2O[C@@H]2O[C@H](C(=O)O)[C@@H](O)[C@H](O)[C@H]2O)CC[C@]2(C)[C@H]3C(=O)C=C4[C@@H]5C[C@@](C)(C(=O)O)CC[C@]5(C)CC[C@@]4(C)[C@]3(C)CC[C@@H]12 | 115
74 | CC(C)=CCC/C(C)=C/CC/C(C)=C/CSc1ccccc1C(=O)O | 72
75 | COc1c(C)c2c(c(O)c1C/C=C(\C)CCC(=O)O)C(=O)OC2 | 106
76 | C1CCN2C[C@H]3C[C@H](\C=C/4CCCN[C@@H]34)[C@H]2C1 | 120
77 | CC[C@@]1(O)C(=O)OCC/2=C1/C=C3\N(CC4=CC5=CC(=CC=C5N=C34)O)C2=O | 42.5
78 | C=CCO/N=C(/C[C@H]1O[C@@H]2O[C@]3(C)CC[C@H]4[C@H](C)CC[C@@H]([C@H]1C)[C@@]24OO3)[C@H]1O[C@@H]2O[C@]3(C)CC[C@H]4[C@H](C)CC[C@@H]([C@H]1C)[C@@]24OO3 | 92.1
79 | Clc1ccccc1C(c1ccccc1)(c1ccccc1)n1cccn1 | 105
80 | C[C@@H](O)[C@@H]1NC(=O)[C@H](CCCCN)NC(=O)[C@@H](Cc2c[nH]c3ccccc23)NC(=O)[C@H](Cc2ccccc2)NC(=O)[C@@H](NC(=O)[C@H](N)Cc2ccccc2)CSSC[C@@H](C(=O)N[C@H](CO)[C@@H](C)O)NC1=O | 89.7
81 | O=C1Nc2ccccc2/C1=C1\Nc2ccccc2C1=O | 104
82 | CCc1cncnc1N1CCN(Cc2nc3cc(C(F)(F)F)ccc3[nH]2)CC1 | 84.5

Same assay, conditions: library / dose series: MIPE library, 11-point 1:3 dilution; top concentration 92.2 µM; 48 h

Row | SMILES | viability
83 | CC(C)(Oc1ccc(C2CC2(Cl)Cl)cc1)C(=O)O (stereo not drawn) | 101
